According to patent US20240325386A1, “THERAPEUTIC AGENT FOR COVID-19” (FUJIFILM Toyama Chemical Co., Ltd., priority 2021, published 2024):
Read-outs that look alike come from different tables or passages of the source.

How the values were obtained:
SARS-CoV-2 [1] = details: Japanese phase III clinical study, as reported in Non-patent Literature 4 (news release); cited from earlier work
SARS-CoV-2 [2] = assay type: in vivo
[3] = mITT, N = 107, improvement in body temperature, SpO2, chest imaging and SARS-CoV-2 negative conversion

## NC(=O)c1nc(F)cnc1O [Compound A, 6-fluoro-3-hydroxy-2-pyrazinecarboxamide]
SARS-CoV-2 [1]
  time to improvement of body temperature, SpO2, chest image findings and SARS-CoV-2 negative conversion (primary endpoint) shorter than in the control group: approximately 3 days
SARS-CoV-2 [2]; mITT, Compound A group 107 patients vs control group 49 patients
  median time to improvement shorter than in the control group: approximately 3 days
SARS-CoV-2 [2]; mITT, Compound A group N = 107, 1,800 mg BID Day 1 + 800 mg BID up to 13 days, oral, plus standard of care
  Patients with improvement: 81
SARS-CoV-2 [2]; [3]
  Median time to improvement in 25% of patients: 7.8 days
  Median time to improvement in 50% of patients: 11.9 days
  Median time to improvement in 75% of patients: 15.6 days
SARS-CoV-2 [2]; subgroup of patients testing negative for both IgG antibody and IgA antibody
  median time to improvement shorter than in the control group: approximately 5 days
